Assay results: patent US12649723B2, “Carbonohydrazonoyl dicyanide compounds comprising 2 or more aryl or heteroaryl connected via linker and use thereof” (KOREA INSTITUTE OF SCIENCE AND TECHNOLOGY, priority 2020, dated 2026)

What was measured:
Tau-BiFC cells = test: Cell viability (cytotoxicity) in tau-BiFC cells, count of stained nuclei; type: cell-based; details: Forskolin-only group = 100% cell viability; for Cell viability: compounds marked *: measured at 3 μM; for Cell viability (% @10 μM): compound 10 μM
Procedure, shortened: (§1)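 Tau-BiFC cells were exposed for 48 h to compound (1, 3, 10 μM for screening; 0.03–30 μM for dose-response) plus 30 μM Forskolin to induce aggregation. BiFC fluorescence was normalised to Forskolin-only minus untreated controls, with IC50 from nonlinear regression. Viability was Hoechst-stained nuclei counts relative to Forskolin-only wells.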

tau protein = biological target: T1, tau protein (Homo sapiens, UniProt P10636); test: Tau-BiFC cell model: inhibition of tau protein aggregation; type: cell-based; details: for remaining activity at 3 µM / remaining activity at 10 µM: 48 h, Forskolin-only group = 100% tau protein-aggregated state; for remaining activity at 3 µM: compounds marked *: measured at 3 μM, read-out: Response; for IC50: Tau BiFC in cells, with Forskolin 30 μM, 48 hours; for remaining activity at 10 µM: compound 10 μM, BiFC fluorescence, read-out: Response (% @10 μM)
T1 construct: fused on or other part: Split fluorescent-protein halves for BiFC are fused to tau; In the published tau-BiFC line these are Venus VN173 and VC155
T1 sequence (P10636 2-441 isoform P10636-8 limits assumed): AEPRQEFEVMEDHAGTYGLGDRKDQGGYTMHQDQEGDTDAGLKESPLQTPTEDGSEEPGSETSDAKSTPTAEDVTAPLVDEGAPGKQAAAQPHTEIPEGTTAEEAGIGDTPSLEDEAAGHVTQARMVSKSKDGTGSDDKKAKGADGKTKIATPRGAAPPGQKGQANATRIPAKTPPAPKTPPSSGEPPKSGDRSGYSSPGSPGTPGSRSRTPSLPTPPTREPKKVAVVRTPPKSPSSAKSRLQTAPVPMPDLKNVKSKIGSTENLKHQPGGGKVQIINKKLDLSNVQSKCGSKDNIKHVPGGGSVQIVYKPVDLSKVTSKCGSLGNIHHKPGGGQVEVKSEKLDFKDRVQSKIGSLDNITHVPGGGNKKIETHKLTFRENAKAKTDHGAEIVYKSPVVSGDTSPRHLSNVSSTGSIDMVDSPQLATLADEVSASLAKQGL
Procedure, shortened: as §1

CYP2C19 = biological target: T2, CYP2C19 (Homo sapiens, UniProt P33261); test: Inhibitory effect on CYP coenzyme activity, human liver microsomes; type: in vitro ADME; details: compound 10 μM; human liver microsomes 0.25 mg/mL; substrate S-mephenytoin; 15 minutes
T2 construct: human liver microsomes (0.25 mg/mL); from tissue; host or cells: human liver microsomes
T2 sequence (P33261 whole entry): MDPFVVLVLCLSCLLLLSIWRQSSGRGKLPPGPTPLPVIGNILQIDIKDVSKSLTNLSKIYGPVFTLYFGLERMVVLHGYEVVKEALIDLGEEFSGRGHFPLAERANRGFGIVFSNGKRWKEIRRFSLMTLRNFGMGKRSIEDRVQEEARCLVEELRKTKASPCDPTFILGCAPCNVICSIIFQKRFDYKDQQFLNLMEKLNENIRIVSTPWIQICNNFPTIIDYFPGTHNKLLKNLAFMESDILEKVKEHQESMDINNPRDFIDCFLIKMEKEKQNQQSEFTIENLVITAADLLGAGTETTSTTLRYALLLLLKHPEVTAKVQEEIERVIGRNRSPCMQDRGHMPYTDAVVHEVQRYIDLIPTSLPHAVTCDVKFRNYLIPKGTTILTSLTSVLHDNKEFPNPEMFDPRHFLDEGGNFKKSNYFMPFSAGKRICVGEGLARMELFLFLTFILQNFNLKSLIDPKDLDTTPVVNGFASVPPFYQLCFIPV
Description: (§2) The inhibitory effects of the compounds prepared according to Examples 1 to 175 on CYP coenzyme activity were identified. Specifically, human liver microsomes (0.25 mg/mL), a 0.1 M phosphate buffer solution (pH 7.4), a substrate drug cocktail of five types of drug metabolism enzymes (50 μM phenacetin, 10 μM diclofenac, 100 μM S-mephenytoin, 5 μM dextromethorphan, and 2.5 μM midazolam), and the compound at a concentration of 0 μM or 10 μM were mixed and pre-cultured at 37° C. for 5 minutes, and then further cultured at 37° C. for 15 minutes together with an NADPH generation system solution added thereto. Thereafter, the reaction was terminated by adding an acetonitrile solution containing an internal standard material (terfenadine) and centrifuged for 5 minutes (14,000 rpm, 4° C.), and then a supernatant was injected into an LC-MS/MS system for simultaneous analysis of metabolites of the substrate drugs to thereby evaluate the inhibitory effects on drug metabolism.
(§3) Metabolites of each CYP coenzyme indicator drug generated through the reaction were analyzed using the Shimadzu Nexera XR system and TSQ Vantage (Thermo). In an HPLC column, Kinetex C18 (2.1 mm×100 mm, 2.6 μm, particle size; Phenomenex, USA) was used, and mobile phases were (A) distilled water containing 0.1% formic acid and (B) acetonitrile containing 0.1% formic acid, and a gradient program shown in Table 3 was applied thereto.
(§4) The generated metabolites were quantified using a multiple reaction monitoring (MRM) quantification mode, and Xcalibur (version 1.6.1) was used for data analysis. Inhibitory effects of the novel compound prepared according to the examples of the present invention on CYP coenzyme activity are shown in Table 4 below.

CYP2C9 = biological target: T3, CYP2C9 (Homo sapiens, UniProt P11712); test: as above; type: in vitro ADME; details: compound 10 μM; human liver microsomes 0.25 mg/mL; substrate diclofenac; 15 minutes
T3 construct: human liver microsomes (0.25 mg/mL); from tissue; host or cells: human liver microsomes
T3 sequence (P11712 whole entry): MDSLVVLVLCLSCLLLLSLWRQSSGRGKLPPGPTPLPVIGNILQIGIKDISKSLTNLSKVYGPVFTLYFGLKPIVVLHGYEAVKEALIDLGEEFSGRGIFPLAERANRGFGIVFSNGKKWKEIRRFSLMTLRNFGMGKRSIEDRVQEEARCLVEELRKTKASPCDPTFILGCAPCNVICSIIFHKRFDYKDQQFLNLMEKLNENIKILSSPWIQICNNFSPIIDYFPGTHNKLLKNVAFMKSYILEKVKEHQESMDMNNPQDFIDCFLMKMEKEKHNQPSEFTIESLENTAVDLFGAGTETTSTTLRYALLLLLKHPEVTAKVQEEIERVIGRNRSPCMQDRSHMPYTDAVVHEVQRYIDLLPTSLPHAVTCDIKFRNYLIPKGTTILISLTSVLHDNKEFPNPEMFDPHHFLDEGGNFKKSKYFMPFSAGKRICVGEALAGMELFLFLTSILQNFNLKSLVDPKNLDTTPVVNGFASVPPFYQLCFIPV
Description: as §2, §3, §4

CYP2D6 = biological target: T4, CYP2D6 (Homo sapiens, UniProt P10635); test: as above; type: in vitro ADME; details: compound 10 μM; human liver microsomes 0.25 mg/mL; substrate dextromethorphan; 15 minutes
T4 construct: human liver microsomes (0.25 mg/mL); from tissue; host or cells: human liver microsomes
T4 sequence (P10635 whole entry): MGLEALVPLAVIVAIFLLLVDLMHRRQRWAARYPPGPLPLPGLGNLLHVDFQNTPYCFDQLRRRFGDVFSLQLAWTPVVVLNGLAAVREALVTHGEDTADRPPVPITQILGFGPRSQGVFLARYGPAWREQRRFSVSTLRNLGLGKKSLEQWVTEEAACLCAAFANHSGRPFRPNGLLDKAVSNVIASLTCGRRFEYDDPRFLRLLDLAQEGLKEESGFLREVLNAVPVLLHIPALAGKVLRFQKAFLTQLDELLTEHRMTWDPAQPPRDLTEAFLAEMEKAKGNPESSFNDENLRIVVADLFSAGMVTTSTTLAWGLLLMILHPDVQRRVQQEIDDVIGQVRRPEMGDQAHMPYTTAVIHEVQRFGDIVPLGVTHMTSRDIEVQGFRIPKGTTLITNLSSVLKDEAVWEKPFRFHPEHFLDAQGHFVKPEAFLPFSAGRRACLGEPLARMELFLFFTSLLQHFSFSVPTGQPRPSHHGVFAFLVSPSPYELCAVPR
Description: as §2, §3, §4

CYP1A2 = biological target: T5, CYP1A2 (Homo sapiens, UniProt P05177); test: as above; type: in vitro ADME; details: compound 10 μM; human liver microsomes 0.25 mg/mL; substrate phenacetin; 15 minutes
T5 construct: human liver microsomes (0.25 mg/mL); from tissue; host or cells: human liver microsomes
T5 sequence (P05177 1-516): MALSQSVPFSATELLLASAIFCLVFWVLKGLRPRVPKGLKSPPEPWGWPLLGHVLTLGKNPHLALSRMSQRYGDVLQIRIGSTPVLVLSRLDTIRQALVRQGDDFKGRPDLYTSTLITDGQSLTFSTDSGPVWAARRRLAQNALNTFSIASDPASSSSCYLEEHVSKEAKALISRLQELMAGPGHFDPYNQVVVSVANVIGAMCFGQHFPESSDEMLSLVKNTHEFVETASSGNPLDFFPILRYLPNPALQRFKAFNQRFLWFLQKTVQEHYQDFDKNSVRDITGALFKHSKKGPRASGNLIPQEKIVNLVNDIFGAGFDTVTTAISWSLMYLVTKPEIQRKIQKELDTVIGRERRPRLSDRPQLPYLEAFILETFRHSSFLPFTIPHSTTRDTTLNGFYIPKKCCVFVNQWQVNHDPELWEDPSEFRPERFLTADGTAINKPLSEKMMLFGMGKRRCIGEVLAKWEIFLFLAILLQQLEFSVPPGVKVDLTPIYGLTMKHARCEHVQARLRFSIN
Description: as §2, §3, §4

CYP3A4 = biological target: T6, CYP3A4 (Homo sapiens, UniProt P08684); test: as above; type: in vitro ADME; details: compound 10 μM; human liver microsomes 0.25 mg/mL; substrate midazolam; 15 minutes
T6 construct: human liver microsomes (0.25 mg/mL); from tissue; host or cells: human liver microsomes
T6 sequence (P08684 whole entry): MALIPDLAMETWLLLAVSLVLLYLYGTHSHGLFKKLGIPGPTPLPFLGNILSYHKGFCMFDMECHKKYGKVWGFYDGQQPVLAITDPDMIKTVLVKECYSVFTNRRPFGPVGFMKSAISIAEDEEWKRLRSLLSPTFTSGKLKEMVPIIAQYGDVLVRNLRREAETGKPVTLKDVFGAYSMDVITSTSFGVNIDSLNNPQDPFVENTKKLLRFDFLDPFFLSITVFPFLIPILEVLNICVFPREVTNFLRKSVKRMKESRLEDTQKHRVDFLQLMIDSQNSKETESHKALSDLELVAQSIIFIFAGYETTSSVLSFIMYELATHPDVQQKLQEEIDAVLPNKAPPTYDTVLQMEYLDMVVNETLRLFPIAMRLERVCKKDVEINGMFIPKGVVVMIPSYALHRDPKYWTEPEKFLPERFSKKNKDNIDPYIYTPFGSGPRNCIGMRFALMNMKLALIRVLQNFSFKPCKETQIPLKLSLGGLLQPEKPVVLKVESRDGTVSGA
Description: as §2, §3, §4

[1] = Liver microsome stability; type: in vitro ADME, rat; details: amount of substrate remaining; compound 1 μM, 30 minutes, 37° C., NADPH
Description: (§5) The stability of liver microsomes due to the compounds prepared according to Examples 1 to 175 was confirmed. Specifically, four types of liver microsomes (human, dog, rat, and mouse, each 0.25 mg/mL), a 0.1 M phosphate buffer solution (pH 7.4), and each of the compounds at a concentration of 1 μM were mixed and pre-cultured at 37° C. for 5 minutes and further cultured at 37° C. for 30 minutes together with an NADPH generation system solution added thereto. Thereafter, the reaction was terminated by adding an acetonitrile solution containing an internal standard material (chloropropamide) and centrifuged for 5 minutes (14,000 rpm, 4° C.), and then a supernatant was injected into an LC-MS/MS system for analysis of substrate drugs to thereby evaluate metabolic stability due to 8 types of compounds.
(§6) The amount of the substrate remaining after the reaction was analyzed using the Shimadzu Nexera XR system and TSQ Vantage (Thermo). In an HPLC column, Kinetex XB-C18 (2.1 mm×100 mm, particle size of 2.6 μm; Phenomenex, USA) was used, and mobile phases were (A) distilled water containing 0.1% formic acid and (B) acetonitrile containing 0.1% formic acid. Analyst software (version 1.6.3) and Xcalibur (version 1.6.1) were used for data analysis.

[2] = Liver microsome stability; type: in vitro ADME, human; details: amount of substrate remaining; compound 1 μM, 30 minutes, 37° C., NADPH
Description: as §5, §6

[3] = Liver microsome stability; type: in vitro ADME, mouse; details: amount of substrate remaining; compound 1 μM, 30 minutes, 37° C., NADPH
Description: as §5, §6

| Structure (SMILES) | Cell viability (Tau-BiFC cells) | remaining activity at 3 µM (tau protein) | IC50 (tau protein) | CYP2C19 (CYP2C19) | CYP2C9 (CYP2C9) | CYP2D6 (CYP2D6) | CYP1A2 (CYP1A2) | CYP3A4 (CYP3A4) | Cell viability (% @10 μM) (Tau-BiFC cells) | remaining activity at 10 µM (tau protein) | Rat (%) [1] | Human (%) [2] | Mouse (%) [3] |
| --- | --- | --- | --- | --- | --- | --- | --- | --- | --- | --- | --- | --- | --- |
| COc1cc(NN=C(C#N)C#N)ccc1OCc1cccnc1 [Compound 160, (3-methoxy-4-(pyridin-3-ylmethoxy)phenyl)carbonohydrazonoyl dicyanide] | 111% | -33% | 7 nM | 68.5 | 6.5 | 59.7 | 5.8 | 17.9 |  |  |  |  |  |
| COc1cc(NN=C(C#N)C#N)ccc1OCc1cnccn1 [Compound 159, (3-methoxy-4-(pyrazin-2-ylmethoxy)phenyl)carbonohydrazonoyl dicyanide] | 114% | -40% | 7 nM | 88 | 54.7 | 86.1 | 42.4 | 82.1 |  |  |  |  |  |
| Cc1cc(NN=C(C#N)C#N)ccc1OCc1cc[nH]n1 [Compound 151, (4-((1H-pyrazol-3-yl)methoxy)-3-methylphenyl)carbonohydrazonoyl dicyanide] | 126% | -32% | 22 nM | >100 | 19.4 | 94.8 | 51.8 | 88 |  |  |  |  |  |
| N#CC(C#N)=NNc1ccc(OCc2ncccn2)cc1 [Compound 136, (4-(pyrimidin-2-ylmethoxy)phenyl)carbonohydrazonoyl dicyanide] |  |  | 1440 nM | 76.5 | 70 | 94.4 | 80.3 | 88.9 | 95.7% | 0% |  |  |  |
| Cc1cnc(COc2ccc(NN=C(C#N)C#N)cc2)cn1 [Compound 138, (4-((5-methylpyrazin-2-yl)methoxy)phenyl)carbonohydrazonoyl dicyanide] | 133% | 15% |  | >100 | 92.5 | 92.7 | 97.4 | 89.4 |  |  |  |  |  |
| Cc1ccc(C(=O)Nc2ccc(NN=C(C#N)C#N)cn2)cc1 [Compound 23, (6-(4-methylbenzamido)pyridin-3-yl)carbonohydrazonoyl dicyanide] |  |  | 130 nM | 82.5 | 40.6 | >100 | 85 | 83.3 | 114.2% | 0% |  |  |  |
| CC(Oc1ccc(NN=C(C#N)C#N)cc1)c1cccnc1 (stereo not shown) [Compound 140, (4-(1-(pyridin-3-yl)ethoxy)phenyl)carbonohydrazonoyl Dicyanide] | 135% | 18% |  | >100 | 11.7 | 69.6 | 96.7 | 30.8 |  |  |  |  |  |
| COc1cc(NN=C(C#N)C#N)ccc1OCc1ccccc1 [Compound 153, (4-(benzyloxy)-3-methoxyphenyl)carbonohydrazonoyl dicyanide] | 122% | -43% | 37 nM | 100 | 44.1 | 90.7 | 67.9 | 98.9 |  |  |  |  |  |
| Cc1cnc(COc2ccc(NN=C(C#N)C#N)cc2C)cn1 [Compound 147, (3-methyl-4-((5-methylpyrazin-2-yl)methoxy)phenyl)carbonohydrazonoyl dicyanide] | 98% | -19% | 147 nM |  |  |  |  |  |  |  | 89% | 86.4% | 91.3% |
| Cc1cc(NN=C(C#N)C#N)ccc1OCc1cc2ccccc2s1 [Compound 150, (4-(benzo[b]thiophen-2-ylmethoxy)-3-methylphenyl)carbonohydrazonoyl dicyanide] | 118% | 11% |  |  |  |  |  |  |  |  | 78.7% | 80.7% | 99.5% |
| Cc1cc(NN=C(C#N)C#N)ccc1OCc1cccnn1 [Compound 149, (3-methyl-4-(pyridazin-3-ylmethoxy)phenyl)carbonohydrazonoyl dicyanide] | 124% | -8% | 185 nM |  |  |  |  |  |  |  | 82.2% | 93.7% | 87.9% |
| COc1cc(NN=C(C#N)C#N)ccc1OCc1cc2ccccc2s1 [Compound 158, (4-(benzo[b]thiophen-2-ylmethoxy)-3-methoxyphenyl)carbonohydrazonoyl dicyanide] | 96% | -33% | 268 nM |  |  |  |  |  |  |  | 48.2% | 36.9% | 73.7% |
